“And” between values parts separate entries of the source, which are not always exact repeats. Equal values may be shown once. Inconclusive results and toxic doses are left out. Cut-off read from the data, not from the text of the source: active = T/C of 150% or more; inactive = T/C below 125%.
Test system: L1210 leukemia ip in BDF1 mice, survival T/C
Experiment: NCI In Vivo Anticancer Drug Screen. Data for tumor model L1210 Leukemia (intraperitoneal) in B6D2F1 (BDF1) mice
Details: endpoint: mean survival time, higher = longer survival
Outline: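 Transplantable tumor model; survival measured in treated vs vehicle control mice. Value = treated/control.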

[1] = dose: 100.0 mg/kg/injection, schedule: Q01DX009 (ip), vehicle: saline
[2] = dose: 200.0 mg/kg/injection, schedule: Q01DX009 (ip), vehicle: saline
[3] = dose: 400.0 mg/kg/injection, schedule: Q01DX009 (ip), vehicle: saline
[4] = dose: 100.0 mg/kg/injection, schedule: Q01DX009 (ip), vehicle: Klucel (hydroxypropylcellulose) (HPC)
[5] = dose: 200.0 mg/kg/injection, schedule: Q01DX009 (ip), vehicle: Klucel (hydroxypropylcellulose) (HPC)
[6] = dose: 400.0 mg/kg/injection, schedule: Q01DX009 (ip), vehicle: Klucel (hydroxypropylcellulose) (HPC)
[7] = dose: 100.0 mg/kg/injection, schedule: Q04DX002 (ip), vehicle: saline
[8] = dose: 200.0 mg/kg/injection, schedule: Q04DX002 (ip), vehicle: saline
[9] = dose: 400.0 mg/kg/injection, schedule: Q04DX002 (ip), vehicle: saline
[10] = dose: 100.0 mg/kg/injection, schedule: Q04DX003 (ip), vehicle: saline
[11] = dose: 200.0 mg/kg/injection, schedule: Q04DX003 (ip), vehicle: saline
[12] = dose: 400.0 mg/kg/injection, schedule: Q04DX003 (ip), vehicle: saline
[13] = dose: 100.0 mg/kg/injection, schedule: Q01DX001 (ip), vehicle: saline
[14] = dose: 200.0 mg/kg/injection, schedule: Q01DX001 (ip), vehicle: saline
[15] = dose: 400.0 mg/kg/injection, schedule: Q01DX001 (ip), vehicle: saline
[16] = dose: 100.0 mg/kg/injection, schedule: Q01DX009 (ip), vehicle: saline with Tween-80
[17] = dose: 200.0 mg/kg/injection, schedule: Q01DX009 (ip), vehicle: saline with Tween-80
[18] = dose: 100.0 mg/kg/injection, schedule: Q01DX001 (ip), vehicle: Klucel (hydroxypropylcellulose) (HPC)
[19] = dose: 200.0 mg/kg/injection, schedule: Q01DX001 (ip), vehicle: Klucel (hydroxypropylcellulose) (HPC)
[20] = dose: 400.0 mg/kg/injection, schedule: Q01DX001 (ip), vehicle: Klucel (hydroxypropylcellulose) (HPC)
[21] = dose: 12.5 mg/kg/injection, schedule: Q01DX009 (ip), vehicle: saline
[22] = dose: 25.0 mg/kg/injection, schedule: Q01DX009 (ip), vehicle: saline
[23] = dose: 25.0 mg/kg/injection, schedule: Q04DX003 (ip), vehicle: saline
[24] = dose: 50.0 mg/kg/injection, schedule: Q01DX009 (ip), vehicle: saline
[25] = dose: 50.0 mg/kg/injection, schedule: Q04DX003 (ip), vehicle: saline
[26] = dose: 50.0 mg/kg/injection, schedule: Q01DX009 (ip), vehicle: saline with Tween-80

Measured: T/C

CC(=O)OCC1OC(n2cnc3c(F)nc(F)nc32)C(OC(C)=O)C1OC(C)=O (stereo unspecified)
inactive: dose: 100.0 mg/kg/injection, schedule: Q01DX001 (sc), vehicle: olive oil, sesame oil, peanut oil 104 % of control | dose: 200.0 mg/kg/injection, schedule: Q01DX001 (sc), vehicle: olive oil, sesame oil, peanut oil 104 % of control | dose: 400.0 mg/kg/injection, schedule: Q01DX001 (sc), vehicle: olive oil, sesame oil, peanut oil 100 % of control

COc1cccc(OC)c1OC(=O)Nc1ccccc1C(F)(F)F
inactive: [1] 98 % of control | [2] 98 % of control | [3] 100 % of control

COc1ccc(CSC(=S)NNc2ccccc2)cc1
inactive: [4] 96 % of control | dose: 100.0 mg/kg/injection, schedule: Q04DX003 (ip), vehicle: Klucel (hydroxypropylcellulose) (HPC) 98 % of control | [5] 86 % of control | dose: 200.0 mg/kg/injection, schedule: Q04DX003 (ip), vehicle: Klucel (hydroxypropylcellulose) (HPC) 93 % of control | [6] 87 % of control | dose: 400.0 mg/kg/injection, schedule: Q04DX003 (ip), vehicle: Klucel (hydroxypropylcellulose) (HPC) 90 % of control

CC(=O)NO
inactive: [7] 102 % of control | [8] 112 % of control | [9] 108 % of control

CN(N)/C(N)=N/N
inactive: [10] 97 % of control | [11] 102 % of control | [12] 97 % of control

O=C(CC(=O)NO)NO
inactive: dose: 100.0 mg/kg/injection, schedule: Q04DX002 (ip), vehicle: saline with Tween-80 103 % of control | [7] 97 % of control | dose: 200.0 mg/kg/injection, schedule: Q04DX002 (ip), vehicle: saline with Tween-80 97 % of control | [8] 100 % of control | dose: 400.0 mg/kg/injection, schedule: Q04DX002 (ip), vehicle: saline with Tween-80 97 % of control | [9] 100 % of control

O=C1c2cc(Br)ccc2NC1(c1c[nH]c2ccccc12)c1c[nH]c2ccccc12
inactive: dose: 50.0 mg/kg/injection, schedule: Q01DX001 (ip), vehicle: saline 102 % of control | [13] 100 % of control | [14] 96 % of control | [15] 93 % of control

CN1CCN(c2ccc3nnc(Cl)n3n2)CC1
inactive: dose: 50.0 mg/kg/injection, schedule: Q04DX003 (ip), vehicle: saline with Tween-80 97 % of control

COC(=O)CC1CCS(=O)(=O)C1 (stereo unspecified)
inactive: [16] 101 % of control | [17] 103 % of control | dose: 400.0 mg/kg/injection, schedule: Q01DX009 (ip), vehicle: saline with Tween-80 95 % of control

O=C(/C=C\C(Cl)(Cl)Cl)c1ccccc1
inactive: [18] 93 % of control | [19] 93 % of control | [20] 97 % of control

CCN1C(=O)CC2(CCN(C)CC2)C1=O
inactive: dose: 0.78 mg/kg/injection, schedule: Q01DX009 (ip), vehicle: saline 98 % of control | dose: 1.56 mg/kg/injection, schedule: Q01DX009 (ip), vehicle: saline 102 % of control | dose: 3.12 mg/kg/injection, schedule: Q01DX009 (ip), vehicle: saline 95 % of control | dose: 6.25 mg/kg/injection, schedule: Q01DX009 (ip), vehicle: saline 117 % of control | [21] 117 % of control | [22] 98 % of control | [23] 113 % of control | [24] 104 % of control and 113 % of control | [25] 115 % of control | [1] 93 % of control and 100 % of control | [10] 105 % of control | [11] 112 % of control | [3] 93 % of control | [12] 109 % of control

COC(=O)c1ccccc1NC(=O)Nc1cc(OC)ccc1OC
inactive: [4] 98 % of control | [5] 102 % of control | [6] 93 % of control

C/C(CC(C)C)=N\NC(=O)Nc1cccc(Cl)c1C
inactive: [18] 86 % of control | [4] 99 % of control and 103 % of control | dose: 100.0 mg/kg/injection, schedule: Q04DX002 (ip), vehicle: Klucel (hydroxypropylcellulose) (HPC) 98 % of control and 92 % of control | [19] 93 % of control | [5] 96 % of control and 99 % of control | dose: 200.0 mg/kg/injection, schedule: Q04DX002 (ip), vehicle: Klucel (hydroxypropylcellulose) (HPC) 103 % of control and 92 % of control | [20] 93 % of control | [6] 93 % of control and 95 % of control | dose: 400.0 mg/kg/injection, schedule: Q04DX002 (ip), vehicle: Klucel (hydroxypropylcellulose) (HPC) 95 % of control

C=Cn1cc[n+](Cc2ccccc2)c1C
inactive: dose: 10.0 mg/kg/injection, schedule: Q01DX009 (ip), vehicle: saline 101 % of control and 104 % of control | dose: 10.0 mg/kg/injection, schedule: Q04DX002 (ip), vehicle: saline 108 % of control and 90 % of control | dose: 20.0 mg/kg/injection, schedule: Q01DX009 (ip), vehicle: saline 105 % of control | dose: 20.0 mg/kg/injection, schedule: Q04DX002 (ip), vehicle: saline 94 % of control and 97 % of control | dose: 40.0 mg/kg/injection, schedule: Q01DX009 (ip), vehicle: saline 100 % of control and 116 % of control | dose: 40.0 mg/kg/injection, schedule: Q04DX002 (ip), vehicle: saline 97 % of control and 102 % of control

CC(=O)OC1COC(NC(=O)NNc2ccccc2)C(OC(C)=O)C1OC(C)=O (stereo unspecified)
inactive: [1] 88 % of control | dose: 100.0 mg/kg/injection, schedule: Q04DX003 (ip), vehicle: water 94 % of control | [2] 92 % of control | dose: 200.0 mg/kg/injection, schedule: Q04DX003 (ip), vehicle: water 97 % of control | dose: 400.0 mg/kg/injection, schedule: Q04DX003 (ip), vehicle: water 96 % of control

CC(=O)CC(=O)N(C(=O)CC(C)=O)c1ccccc1C
inactive: [26] 105 % of control | [16] 105 % of control | [17] 94 % of control

C=CCOB(OCC=C)OCC=C
inactive: [21] 120 % of control | [22] 101 % of control | [23] 97 % of control | [24] 106 % of control | [25] 103 % of control

O=c1[nH]c2cc(Cl)cc(Cl)c2c2ccc(Cl)cc12
inactive: dose: 100.0 mg/kg/injection, schedule: Q01DX001 (ip), vehicle: carboxymethylcellulose (CMC) 100 % of control | dose: 200.0 mg/kg/injection, schedule: Q01DX001 (ip), vehicle: carboxymethylcellulose (CMC) 96 % of control | dose: 400.0 mg/kg/injection, schedule: Q01DX001 (ip), vehicle: carboxymethylcellulose (CMC) 89 % of control

CC(O)COCCOCCO (stereo unspecified)
inactive: [10] 96 % of control | [11] 99 % of control | [12] 94 % of control

O=C(OCCN1CCCCCCCC1)C(c1ccccc1)c1ccccc1
inactive: dose: 100.0 mg/kg/injection, schedule: Q01DX001 (ip), vehicle: other 101 % of control | dose: 200.0 mg/kg/injection, schedule: Q01DX001 (ip), vehicle: other 90 % of control | dose: 400.0 mg/kg/injection, schedule: Q01DX001 (ip), vehicle: other 110 % of control

COc1ccccc1CCN
inactive: [7] 112 % of control | [8] 93 % of control and 108 % of control

Cc1cc([N+](=O)[O-])ccc1N=O
inactive: dose: 12.5 mg/kg/injection, schedule: Q01DX009 (ip), vehicle: saline with Tween-80 101 % of control | dose: 25.0 mg/kg/injection, schedule: Q01DX009 (ip), vehicle: saline with Tween-80 102 % of control | [26] 98 % of control | dose: 100.0 mg/kg/injection, schedule: Q04DX003 (ip), vehicle: saline with Tween-80 98 % of control | dose: 200.0 mg/kg/injection, schedule: Q04DX003 (ip), vehicle: saline with Tween-80 100 % of control | dose: 400.0 mg/kg/injection, schedule: Q04DX003 (ip), vehicle: saline with Tween-80 100 % of control

CC(=O)Nc1ccc2c(c1)C(=O)c1ccccc1-2
inactive: [10] 96 % of control | [11] 100 % of control | [12] 94 % of control

C/C(CC(=O)Nc1ccccn1)=N\c1ccccn1
inactive: [13] 98 % of control | [14] 92 % of control | [15] 88 % of control

CCNS(=O)(=O)c1ccc(Cl)c([N+](=O)[O-])c1
inactive: [18] 101 % of control | [19] 102 % of control | [20] 107 % of control

Reference: PubChem BioAssay AID248 (DTP/NCI, 2004)
